Results as given in article PMC10262914 (Bioorganic chemistry, 2022).
In brackets after ≈: the same amount, converted by molar mass. Read-outs that look alike come from different tables or passages of the source.

What was measured:
Assay type in all cases: cell-based
[1] = tested on: Mycobacterium tuberculosis H37Rv; assay: Alamar blue metabolic readout assay; conditions: for 7H12 MIC: M. tuberculosis H37Rv; for MIC: Mycobacterium tuberculosis, H37RV, read-out: 7H12 MIC
[2] = tested on: Mycobacterium tuberculosis H37Rv; assay: Alamar blue metabolic readout assay; conditions: for GAS MIC: M. tuberculosis H37Rv; for MIC: Mycobacterium tuberculosis, H37RV, read-out: GAS MIC
[3] = tested on: Mycobacterium tuberculosis H37Rv; assay: Low oxygen recovery assay; conditions: Mycobacterium tuberculosis, H37RV, read-out: LORA MIC
[4] = tested on: VERO cells (kidney epithelial cells); assay: Toxicity against VERO cells
[5] = Chlorocebus sabaeus, Vero, read-out: Vero IC50, toxicity against Vero cells

| Compound | 7H12 MIC ([1]; 7H12 media) [µM] | MIC [1] [µM] | GAS MIC ([2]; GAS media) [µM] | MIC [2] [µM] | MIC [3] [µM] | IC50 [4, 5] [µM] | fold less active than 30 ([1]; 7H12 media, MIC ratio versus compound 30 (printed as 4-OCF3 para)) [fold] | fold less active than 30 ([2]; GAS media, MIC ratio versus compound 30 (printed as 4-OCF3 para)) | IC50 ([4]; read-out: Vero IC50, toxicity against Vero cells) [µM] | fold less active than 37 ([1]; 7H12 media, MIC ratio versus para isomer 37) [fold] |
| --- | --- | --- | --- | --- | --- | --- | --- | --- | --- | --- |
| [2H]c1c(C([2H])([2H])[2H])c([2H])n2c(C(=O)NCc3ccc4c(c3)CCCO4)c(C)nc2c1[2H] [Compound 39, N-(Chroman-6-ylmethyl)-2-methyl-6-(methyl-d3)imidazo[1,2-a] pyridine-5,7,8-d3-3-carboxamide] | 0.0072 ± 0.0004 | 0.0072 (≈ 2.46 ng/mL) | 0.0225 ± 0.0018 | 0.0225 (≈ 7.68 ng/mL) |  |  |  |  |  |  |
| [2H]c1c(C([2H])([2H])[2H])c([2H])n2c(C(=O)NCc3ccc4c(c3)OCCO4)c(C)nc2c1[2H] [Compound 40, N-((2,3-Dihydrobenzo[b][1,4]dioxin-6-yl)methyl)-2-methyl-6-(methyl-d3)imidazo[1,2-a]pyridine-5,7,8-d3-3-carboxamide] | 0.0051 ± 0.0016 | 0.0051 (≈ 1.75 ng/mL) | 0.0101 ± 0.001 | 0.0101 (≈ 3.47 ng/mL) |  |  |  |  |  |  |
| [2H]c1c(C([2H])([2H])[2H])c([2H])n2c(C(=O)NCc3ccc(F)cc3)c(C)nc2c1[2H] [Compound 29, N-(4-Fluorobenzyl)-2-methyl-6-(methyl-d3)imidazo[1,2-a]pyridine-5,7,8-d3–3-carboxamide] |  | 0.11 ± 0.0118 (≈ 33.4 ng/mL) | 0.0233 ± 0.0005 | 0.0233 (≈ 7.07 ng/mL) | > 10 | > 10 |  |  |  |  |
| [2H]c1c(C([2H])([2H])[2H])c([2H])n2c(C(=O)NCc3ccc(OCC)cc3)c(C)nc2c1[2H] [Compound 38, N-(4-Ethoxybenzyl)-2-methyl-6-(methyl-d3)imidazo[1,2-a] pyridine-5,7,8-d3-3-carboxamide] |  | 0.0236 ± 0.0104 (≈ 7.77 ng/mL) | 0.0092 ± 0.0013 | 0.0092 (≈ 3.03 ng/mL) |  |  |  |  |  |  |
| [2H]c1c(C([2H])([2H])[2H])c([2H])n2c(C(=O)NCc3ccc(OC(F)(F)F)cc3)c(C)nc2c1[2H] [Compound 34, 2-Methyl-6-(methyl-d3)-N-(4-(trifluoromethoxy)benzyl)imidazo [1,2-a]pyridine-5,7,8-d3-3-carboxamide] | 0.0055 ± 0.0018 | 0.0055 (≈ 2.03 ng/mL) | 0.0022 ± 0.0004 | 0.0022 (≈ 0.813 ng/mL) | > 5 | > 50 |  |  |  |  |
| [2H]c1c(C([2H])([2H])[2H])c([2H])n2c(C(=O)NCc3ccc(Cl)cc3)c(C)nc2c1[2H] [Compound 31, N-(4-Chlorobenzyl)-2-methyl-6-(methyl-d3)imidazo[1,2-a]pyridine-5,7,8-d3-3-carboxamide] | 0.0231 ± 0.0071 | 0.0231 (≈ 7.39 ng/mL) | 0.012 ± 0.0015 | 0.012 (≈ 3.84 ng/mL) | 7.09 (≈ 2270 ng/mL) | > 10 |  |  |  |  |
| [2H]c1c(C([2H])([2H])[2H])c([2H])n2c(C(=O)NCc3cccc(OC(F)(F)F)c3)c(C)nc2c1[2H] [Compound 43, 2-Methyl-6-(methyl-d3)-N-(3-(trifluoromethoxy)benzyl)imidazo [1,2-a]pyridine-5,7,8-d3-3-carboxamide] |  | 0.108 ± 0.0074 (≈ 39.9 ng/mL) |  | 0.0263 ± 0.0036 (≈ 9.71 ng/mL) | 4.92 (≈ 1820 ng/mL) | > 10 | > 28 | ~ 2.9 fold |  |  |
| CCc1nc2ccc(Cl)cn2c1C(=O)NCc1ccc(N2CCC(c3ccc(OC(F)(F)F)cc3)CC2)cc1 [Compound Q203, Telacebec, reference compound] | 0.0036 ± 0.0005 | 0.0036 (≈ 2.01 ng/mL) | 0.0009 ± 0.0004 | 0.0009 (≈ 0.501 ng/mL) | > 5 |  |  |  |  |  |
| Cc1ccc2nc(C)c(C(=O)NCc3ccc(C(F)(F)F)cc3)n2c1 [Compound 57, 2,6-Bis(Methyl-d3)-N-((4-(trifluoromethyl)phenyl)methyl-d2) imidazo[1,2-a]pyridine-7,8-d2-3-carboxamide] |  |  |  |  |  |  |  |  | > 50 |  |
| [2H]c1c(C([2H])([2H])[2H])c([2H])n2c(C(=O)NCc3cccc(OC)c3)c(C)nc2c1[2H] [Compound 45, N-(3-Methoxybenzyl)-2-methyl-6-(methyl-d3)imidazo[1,2-a] pyridine-5,7,8-d3-3-carboxamide] | 0.105 ± 0.0191 | 0.105 (≈ 33.1 ng/mL) | 0.0205 ± 0.0004 | 0.0205 (≈ 6.47 ng/mL) |  |  |  |  |  | 3 |
